The values that follow come from PubChem BioAssay AID330 (DTP/NCI, 2004).

This experiment deals with P388 leukemia ip, CD2F1 mice, survival T/C. Briefly: NCI In Vivo Anticancer Drug Screen. Data for tumor model P388 Leukemia (intraperitoneal) in CD2F1 (CDF1) mice. The note with it: endpoint: median survival time, higher = longer survival. An outline of the steps:
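Mice carrying the transplanted tumor received test compound or vehicle. Survival was recorded in each group, and the value is the treated-group measurement divided by that of the vehicle-treated control group.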

[1] abbreviates: dose: 50.0 mg/kg/injection, schedule: Q01DX009 (ip), vehicle: Klucel (hydroxypropylcellulose) (HPC).
[2] abbreviates: dose: 100.0 mg/kg/injection, schedule: Q01DX009 (ip), vehicle: Klucel (hydroxypropylcellulose) (HPC).
Where [3] appears, read: dose: 200.0 mg/kg/injection, schedule: Q01DX009 (ip), vehicle: Klucel (hydroxypropylcellulose) (HPC).
Setting [4] is: dose: 50.0 mg/kg/injection, schedule: Q01DX005 (ip), vehicle: Klucel (hydroxypropylcellulose) (HPC).
Setting [5] is: dose: 100.0 mg/kg/injection, schedule: Q01DX005 (ip), vehicle: Klucel (hydroxypropylcellulose) (HPC).
The mark [6] stands for this setting: dose: 200.0 mg/kg/injection, schedule: Q01DX005 (ip), vehicle: Klucel (hydroxypropylcellulose) (HPC).
[7] abbreviates: dose: 50.0 mg/kg/injection, schedule: Q01DX009 (ip), vehicle: saline.
The mark [8] stands for this setting: dose: 100.0 mg/kg/injection, schedule: Q01DX009 (ip), vehicle: saline.

Each structure is given as a SMILES string. Several values for one entry are separate records, joined by “and”; a condition that tells them apart may be missing. Equal entries are not always repeated. Inconclusive results and toxic doses are left out.

As to `O=C(O)C(Cc1ccc(OC(=O)C(F)(F)F)cc1)NC(=O)C(F)(F)F` (configuration not stated), the T/C by setting is: (dose: 25.0 mg/kg/injection, schedule: Q04DX003 (ip), vehicle: saline with Tween-80) 95 % of control; (dose: 50.0 mg/kg/injection, schedule: Q04DX003 (ip), vehicle: saline with Tween-80) 100 % of control; (dose: 100.0 mg/kg/injection, schedule: Q04DX003 (ip), vehicle: saline with Tween-80) 100 % of control and 101 % of control; (dose: 400.0 mg/kg/injection, schedule: Q04DX003 (ip), vehicle: saline with Tween-80) 93 % of control.
In the case of `CC(O)CNCCNc1ccc(NCCNCC(C)O)c2c1C(=O)c1c(O)ccc(O)c1C2=O` (configuration not stated), the T/C runs as follows: (dose: 0.5 mg/kg/injection, schedule: Q01DX009 (ip), vehicle: acid diluted with saline) 165 % of control; (dose: 1.0 mg/kg/injection, schedule: Q01DX009 (ip), vehicle: acid diluted with saline) 150 % of control; (dose: 2.0 mg/kg/injection, schedule: Q01DX009 (ip), vehicle: acid diluted with saline) 200 % of control; (dose: 4.0 mg/kg/injection, schedule: Q01DX009 (ip), vehicle: acid diluted with saline) 234 % of control; (dose: 8.0 mg/kg/injection, schedule: Q01DX009 (ip), vehicle: acid diluted with saline) 202 % of control.
On to `O=c1c2cc3ccccc3cc2c(=O)n2n1CC=CC2`, for which the T/C under setting [1] is 97 % of control and the T/C under setting [2] was 90 % of control.
For the compound `O=C1N[C@H]2[C@H](CS[C@H]2CCCCC(=O)N(CCP(c2ccccc2)c2ccccc2)CCP(c2ccccc2)c2ccccc2)N1`, the T/C runs as follows: (dose: 12.5 mg/kg/injection, schedule: Q01DX009 (ip), vehicle: Klucel (hydroxypropylcellulose) (HPC)) 104 % of control and 111 % of control; (dose: 25.0 mg/kg/injection, schedule: Q01DX009 (ip), vehicle: Klucel (hydroxypropylcellulose) (HPC)) 101 % of control and 105 % of control; under setting [1], 103 % of control and 104 % of control; under setting [2], 108 % of control and 124 % of control; under setting [3], 114 % of control and 119 % of control; (dose: 400.0 mg/kg/injection, schedule: Q01DX009 (ip), vehicle: Klucel (hydroxypropylcellulose) (HPC)) 102 % of control and 114 % of control.
Regarding `COc1ccc2c(c1)OC(C)(C)C(c1ccccc1)=C2c1ccc(OCCBr)c([N+](=O)[O-])c1`, the T/C is 107 % of control under setting [4], 98 % of control under setting [5] and 101 % of control under setting [6].
As for `COc1ccc2c(c1)c1ccnc3ccc(=O)n2c31`, the T/C (dose: 0.83 mg/kg/injection, schedule: Q01DX009 (ip), vehicle: saline with Tween-80) was 98 % of control; the T/C (dose: 1.65 mg/kg/injection, schedule: Q01DX009 (ip), vehicle: saline with Tween-80) was 109 % of control; the T/C (dose: 3.29 mg/kg/injection, schedule: Q01DX009 (ip), vehicle: saline with Tween-80) was 109 % of control; the T/C (dose: 6.58 mg/kg/injection, schedule: Q01DX009 (ip), vehicle: saline with Tween-80) was 109 % of control.
On to `CCCCCCCC[N+]1([O-])CCCCC1`, for which the T/C under setting [7] is 97 % of control and the T/C under setting [8] is 102 % of control.
For `CN(c1ccccc1)c1cc2nc3ccccc3nc2cc1O` the same measures were 98 % of control and 91 % of control.
As for `N#Cc1cnc(N)[nH]c1=O`, the T/C (dose: 15.0 mg/kg/injection, schedule: Q01DX005 (ip), vehicle: Klucel (hydroxypropylcellulose) (HPC)) is 101 % of control; the T/C (dose: 30.0 mg/kg/injection, schedule: Q01DX005 (ip), vehicle: Klucel (hydroxypropylcellulose) (HPC)) was 97 % of control; the T/C (dose: 60.0 mg/kg/injection, schedule: Q01DX005 (ip), vehicle: Klucel (hydroxypropylcellulose) (HPC)) was 98 % of control and 99 % of control.
`CCN(CC)C(=O)C(C)C1=NS(=O)(=O)c2ccccc21` (configuration not stated): the T/C (dose: 75.0 mg/kg/injection, schedule: Q04DX003 (ip), vehicle: Klucel (hydroxypropylcellulose) (HPC)) was 101 % of control; the T/C (dose: 150.0 mg/kg/injection, schedule: Q04DX003 (ip), vehicle: Klucel (hydroxypropylcellulose) (HPC)) is 99 % of control; the T/C (dose: 300.0 mg/kg/injection, schedule: Q04DX003 (ip), vehicle: Klucel (hydroxypropylcellulose) (HPC)) is 100 % of control.
Take `COC(=O)[C@@H]1[C@H]2CS(=O)(=O)C[C@H]2[C@@H]1C(=O)OC`: the T/C under setting [4] is 99 % of control, the T/C under setting [5] was 96 % of control and the T/C under setting [6] is 100 % of control.
Take `COc1ccc(-c2cc(=O)cc(C(N)=O)o2)cc1`: the T/C (dose: 60.0 mg/kg/injection, schedule: Q01DX005 (ip), vehicle: saline with Tween-80) was 101 % of control; the T/C (dose: 120.0 mg/kg/injection, schedule: Q01DX005 (ip), vehicle: saline with Tween-80) was 97 % of control; the T/C (dose: 240.0 mg/kg/injection, schedule: Q01DX005 (ip), vehicle: saline with Tween-80) was 96 % of control.
Take `CC(C)(C)OC(=O)N1CC(O)CC1C(=O)O` (configuration not stated): the T/C runs as follows: (dose: 50.0 mg/kg/injection, schedule: Q01DX005 (ip), vehicle: saline) 91 % of control; (dose: 100.0 mg/kg/injection, schedule: Q01DX005 (ip), vehicle: saline) 91 % of control.
As to `N#CC(OC1OC(COC2OC(CO)C(O)C(O)C2O)C(O)C(O)C1O)c1ccccc1` (configuration not stated), the T/C was 102 % of control and 108 % of control (dose: 25.0 mg/kg/injection, schedule: Q01DX009 (ip), vehicle: water); 101 % of control and 108 % of control (dose: 50.0 mg/kg/injection, schedule: Q01DX009 (ip), vehicle: water); 102 % of control and 105 % of control and 94 % of control (dose: 100.0 mg/kg/injection, schedule: Q01DX009 (ip), vehicle: water); 105 % of control and 109 % of control and 92 % of control (dose: 200.0 mg/kg/injection, schedule: Q01DX009 (ip), vehicle: water); 105 % of control and 110 % of control and 96 % of control (dose: 400.0 mg/kg/injection, schedule: Q01DX009 (ip), vehicle: water); 98 % of control (dose: 800.0 mg/kg/injection, schedule: Q01DX009 (ip), vehicle: saline). Also, the T/C is 105 % of control and 123 % of control and 96 % of control (dose: 800.0 mg/kg/injection, schedule: Q01DX009 (ip), vehicle: water); 100 % of control (dose: 1600.0 mg/kg/injection, schedule: Q01DX009 (ip), vehicle: saline).
For `O=c1[nH]c(-c2ccccc2)nc2nc3ccc([N+](=O)[O-])cc3[n+]([O-])c12`, the T/C under setting [7] is 93 % of control; the T/C under setting [8] was 92 % of control; the T/C (dose: 200.0 mg/kg/injection, schedule: Q01DX009 (ip), vehicle: saline) was 97 % of control.
On to `Cc1c(Cl)cccc1NC(=O)NNC(=O)c1ccncc1`, for which the T/C is, setting by setting: under setting [1], 90 % of control; under setting [2], 88 % of control; under setting [3], 88 % of control.
Turning to `O=C1c2ccccc2C(=O)C1(Br)C(Br)c1ccccc1` (configuration not stated), the T/C is 104 % of control under setting [2]; 104 % of control (dose: 100.0 mg/kg/injection, schedule: Q04DX003 (ip), vehicle: Klucel (hydroxypropylcellulose) (HPC)); 95 % of control (dose: 200.0 mg/kg/injection, schedule: Q04DX003 (ip), vehicle: Klucel (hydroxypropylcellulose) (HPC)); 90 % of control (dose: 400.0 mg/kg/injection, schedule: Q04DX003 (ip), vehicle: Klucel (hydroxypropylcellulose) (HPC)).
For the compound `C[N+](C)(C)[N-]C(=N)c1ccccc1`, the T/C (dose: 25.0 mg/kg/injection, schedule: Q01DX001 (ip), vehicle: suspension in saline) was 102 % of control; the T/C (dose: 50.0 mg/kg/injection, schedule: Q01DX001 (ip), vehicle: suspension in saline) is 104 % of control; the T/C (dose: 100.0 mg/kg/injection, schedule: Q01DX001 (ip), vehicle: suspension in saline) is 99 % of control and 110 % of control.
`CN(C)c1ccc(-c2c3ccccc3nc3ccccc23)cc1`: the T/C runs as follows: (dose: 12.5 mg/kg/injection, schedule: Q01DX009 (ip), vehicle: saline with Tween-80) 90 % of control; (dose: 25.0 mg/kg/injection, schedule: Q01DX009 (ip), vehicle: saline with Tween-80) 90 % of control; (dose: 50.0 mg/kg/injection, schedule: Q01DX009 (ip), vehicle: saline with Tween-80) 100 % of control.
As for `Cc1ccc(C(O)(c2ccc(C)cc2)C2(O)CCCCC2)cc1`, the T/C was 109 % of control (dose: 50.0 mg/kg/injection, schedule: Q01DX005 (ip), vehicle: saline with Tween-80); 100 % of control (dose: 100.0 mg/kg/injection, schedule: Q01DX005 (ip), vehicle: saline with Tween-80); 101 % of control (dose: 200.0 mg/kg/injection, schedule: Q01DX005 (ip), vehicle: saline with Tween-80).
For `CCCN(CCC)C(=O)C(c1ccccc1)C1(O)CCCC1` (configuration not stated), the T/C is, setting by setting: under setting [4], 101 % of control; under setting [5], 102 % of control; under setting [6], 102 % of control.
